In assay [1] the target is T1, Myotonin-protein kinase (Homo sapiens) (UniProt Q09013).
T1 sequence (whole entry): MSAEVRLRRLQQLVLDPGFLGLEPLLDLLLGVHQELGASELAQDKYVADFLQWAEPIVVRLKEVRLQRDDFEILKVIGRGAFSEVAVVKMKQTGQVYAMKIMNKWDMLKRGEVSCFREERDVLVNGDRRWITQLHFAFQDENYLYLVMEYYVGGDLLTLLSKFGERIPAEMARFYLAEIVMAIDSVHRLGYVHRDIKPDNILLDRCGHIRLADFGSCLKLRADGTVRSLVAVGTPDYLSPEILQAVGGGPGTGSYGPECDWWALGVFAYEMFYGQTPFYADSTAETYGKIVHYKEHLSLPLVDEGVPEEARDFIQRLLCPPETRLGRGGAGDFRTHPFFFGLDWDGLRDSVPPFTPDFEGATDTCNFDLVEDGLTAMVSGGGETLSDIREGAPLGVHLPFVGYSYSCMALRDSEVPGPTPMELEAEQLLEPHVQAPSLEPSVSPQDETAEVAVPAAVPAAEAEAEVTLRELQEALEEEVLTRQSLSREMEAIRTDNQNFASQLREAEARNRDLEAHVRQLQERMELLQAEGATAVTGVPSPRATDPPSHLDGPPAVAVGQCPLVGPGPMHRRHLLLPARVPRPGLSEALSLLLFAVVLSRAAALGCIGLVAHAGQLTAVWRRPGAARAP
The assay is described as follows: Residual activity of DMPK at 10 uM by microplate scintillation counting.

Assay [2] has as its target Serine/threonine-protein kinase B-raf (Homo sapiens) (UniProt P15056). Description: Residual activity of Wild type B-RAF at 10 uM by microplate scintillation counting.
Assay [3] deals with Homeodomain-interacting protein kinase 3 (Homo sapiens) (UniProt Q9H422). The assay is described as follows: Residual activity of HIPK3 at 1 uM by microplate scintillation counting.
Assay [4] has as its target Receptor tyrosine-protein kinase erbB-4 (Homo sapiens) (UniProt Q15303). Description: Residual activity of ERBB4 at 0.1 uM by microplate scintillation counting.
For assay [5], the target named is MAP/microtubule affinity-regulating kinase 3 (Homo sapiens) (UniProt P27448). Description: Residual activity of MARK3 at 1 uM by microplate scintillation counting.
Assay [6] addresses Epidermal growth factor receptor (Homo sapiens, UniProt P00533). Description: Residual activity of wild type EGF-R at 10 uM by microplate scintillation counting.
The target of assay [7] is Mitogen-activated protein kinase 9 (Homo sapiens) (UniProt P45984). The assay is described as follows: Residual activity of JNK2 at 0.1 uM by microplate scintillation counting.
Assay [8] has as its target Interferon-induced, double-stranded RNA-activated protein kinase (Homo sapiens) (UniProt P19525). Description: Residual activity of EIF2AK2 at 1 uM by microplate scintillation counting.
For assay [9], the target named is T2, Phosphorylase b kinase gamma catalytic chain, liver/testis isoform (Homo sapiens) (UniProt P15735).
T2 sequence (whole entry): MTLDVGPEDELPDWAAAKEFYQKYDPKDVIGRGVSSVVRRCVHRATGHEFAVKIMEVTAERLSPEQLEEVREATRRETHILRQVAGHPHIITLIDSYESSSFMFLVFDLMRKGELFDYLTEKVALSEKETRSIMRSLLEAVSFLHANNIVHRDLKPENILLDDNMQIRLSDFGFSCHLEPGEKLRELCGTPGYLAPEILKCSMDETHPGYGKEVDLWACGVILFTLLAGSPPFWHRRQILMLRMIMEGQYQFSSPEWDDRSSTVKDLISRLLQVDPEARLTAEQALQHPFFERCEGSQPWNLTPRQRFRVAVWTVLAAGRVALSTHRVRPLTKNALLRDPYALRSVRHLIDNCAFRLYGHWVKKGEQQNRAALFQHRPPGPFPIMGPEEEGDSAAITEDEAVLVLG
The assay is described as follows: Residual activity of PHKG2 at 1 uM by microplate scintillation counting.

For assay [10], the target named is T3, Serine/threonine-protein kinase D3 (Homo sapiens) (UniProt O94806).
T3 sequence (whole entry): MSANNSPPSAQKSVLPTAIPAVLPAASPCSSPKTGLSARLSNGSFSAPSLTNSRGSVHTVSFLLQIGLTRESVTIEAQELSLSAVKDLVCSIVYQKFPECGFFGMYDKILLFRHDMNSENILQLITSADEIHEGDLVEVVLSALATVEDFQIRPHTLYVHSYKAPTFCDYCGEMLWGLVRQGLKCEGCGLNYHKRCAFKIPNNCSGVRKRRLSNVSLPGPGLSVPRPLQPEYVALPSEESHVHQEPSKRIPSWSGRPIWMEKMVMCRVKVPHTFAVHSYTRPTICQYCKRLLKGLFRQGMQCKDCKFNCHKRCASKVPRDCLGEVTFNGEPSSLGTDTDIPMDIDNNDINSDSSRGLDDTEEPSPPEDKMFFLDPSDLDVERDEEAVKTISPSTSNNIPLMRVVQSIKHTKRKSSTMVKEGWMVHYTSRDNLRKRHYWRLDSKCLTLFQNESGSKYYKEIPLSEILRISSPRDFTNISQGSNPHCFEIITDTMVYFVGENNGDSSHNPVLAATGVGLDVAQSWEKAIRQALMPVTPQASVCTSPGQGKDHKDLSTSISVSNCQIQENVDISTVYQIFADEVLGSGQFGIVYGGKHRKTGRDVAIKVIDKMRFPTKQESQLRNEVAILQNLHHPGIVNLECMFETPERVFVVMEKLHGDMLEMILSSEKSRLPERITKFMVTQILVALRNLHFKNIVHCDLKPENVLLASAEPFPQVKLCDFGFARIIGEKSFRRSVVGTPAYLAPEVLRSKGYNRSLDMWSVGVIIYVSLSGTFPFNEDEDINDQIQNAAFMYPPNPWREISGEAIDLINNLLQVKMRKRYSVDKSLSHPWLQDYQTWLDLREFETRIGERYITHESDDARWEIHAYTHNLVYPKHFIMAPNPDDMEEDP
The assay is described as follows: Residual activity of PKCnu at 0.1 uM by microplate scintillation counting.

Assay [11] deals with Insulin receptor-related protein (Homo sapiens) (UniProt P14616). Description: Residual activity of INSRR at 1 uM by microplate scintillation counting.
For assay [12], the target named is Death-associated protein kinase 1 (Homo sapiens) (UniProt P53355). Description: Residual activity of DAPK1 at 10 uM by microplate scintillation counting.
Assay [13] has as its target Cyclin-dependent kinase 2/cyclin E1 (Homo sapiens) (UniProt P24864+P24941). The assay is described as follows: Residual activity of CDK2/Cyclin E at 0.1uM by microplate scintillation counting. The class given is protein-complex assay.
The target in assay [14] is Protein kinase C eta type (Homo sapiens) (UniProt P24723). Description: Residual activity of PKCeta at 0.1 uM by microplate scintillation counting.

Three compounds from ChEMBL document CHEMBL1152560, “Substituted 2-arylbenzothiazoles as kinase inhibitors: hit-to-lead optimization” (Bioorg Med Chem, 2009) can be followed below.

Chain of Epidermal growth factor receptor (P00533 whole entry): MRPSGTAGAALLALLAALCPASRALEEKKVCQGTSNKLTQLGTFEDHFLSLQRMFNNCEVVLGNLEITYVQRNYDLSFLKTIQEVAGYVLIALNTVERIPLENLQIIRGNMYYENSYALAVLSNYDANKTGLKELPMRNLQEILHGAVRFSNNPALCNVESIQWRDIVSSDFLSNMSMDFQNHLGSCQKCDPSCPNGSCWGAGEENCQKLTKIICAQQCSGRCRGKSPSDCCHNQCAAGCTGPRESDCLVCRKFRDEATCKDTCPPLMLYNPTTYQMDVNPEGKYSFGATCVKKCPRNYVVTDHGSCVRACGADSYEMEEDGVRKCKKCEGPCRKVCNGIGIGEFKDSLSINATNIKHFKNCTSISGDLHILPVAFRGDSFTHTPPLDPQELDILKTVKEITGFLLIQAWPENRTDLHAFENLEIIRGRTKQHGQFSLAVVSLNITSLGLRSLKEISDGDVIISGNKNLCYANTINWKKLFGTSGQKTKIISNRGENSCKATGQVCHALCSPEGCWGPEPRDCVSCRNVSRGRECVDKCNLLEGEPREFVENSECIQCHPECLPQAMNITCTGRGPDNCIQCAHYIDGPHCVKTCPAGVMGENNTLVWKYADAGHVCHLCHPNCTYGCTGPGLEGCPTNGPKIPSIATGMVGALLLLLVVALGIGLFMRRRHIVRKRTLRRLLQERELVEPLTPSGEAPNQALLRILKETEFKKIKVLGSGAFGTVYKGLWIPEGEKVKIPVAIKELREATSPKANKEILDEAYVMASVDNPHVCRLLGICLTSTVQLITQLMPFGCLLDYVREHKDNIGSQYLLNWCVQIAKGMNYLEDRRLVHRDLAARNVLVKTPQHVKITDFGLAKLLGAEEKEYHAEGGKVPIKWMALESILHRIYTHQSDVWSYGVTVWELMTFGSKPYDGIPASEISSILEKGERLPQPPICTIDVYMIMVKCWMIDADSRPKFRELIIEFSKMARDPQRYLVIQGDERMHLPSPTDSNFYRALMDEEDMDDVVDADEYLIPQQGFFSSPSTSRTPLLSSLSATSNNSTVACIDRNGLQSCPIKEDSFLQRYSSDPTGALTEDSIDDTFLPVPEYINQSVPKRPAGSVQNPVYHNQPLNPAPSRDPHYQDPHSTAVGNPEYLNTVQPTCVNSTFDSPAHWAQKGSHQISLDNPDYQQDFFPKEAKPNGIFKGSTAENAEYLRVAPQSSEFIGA
Chain of Protein kinase C eta type (Homo sapiens) (P24723 whole entry): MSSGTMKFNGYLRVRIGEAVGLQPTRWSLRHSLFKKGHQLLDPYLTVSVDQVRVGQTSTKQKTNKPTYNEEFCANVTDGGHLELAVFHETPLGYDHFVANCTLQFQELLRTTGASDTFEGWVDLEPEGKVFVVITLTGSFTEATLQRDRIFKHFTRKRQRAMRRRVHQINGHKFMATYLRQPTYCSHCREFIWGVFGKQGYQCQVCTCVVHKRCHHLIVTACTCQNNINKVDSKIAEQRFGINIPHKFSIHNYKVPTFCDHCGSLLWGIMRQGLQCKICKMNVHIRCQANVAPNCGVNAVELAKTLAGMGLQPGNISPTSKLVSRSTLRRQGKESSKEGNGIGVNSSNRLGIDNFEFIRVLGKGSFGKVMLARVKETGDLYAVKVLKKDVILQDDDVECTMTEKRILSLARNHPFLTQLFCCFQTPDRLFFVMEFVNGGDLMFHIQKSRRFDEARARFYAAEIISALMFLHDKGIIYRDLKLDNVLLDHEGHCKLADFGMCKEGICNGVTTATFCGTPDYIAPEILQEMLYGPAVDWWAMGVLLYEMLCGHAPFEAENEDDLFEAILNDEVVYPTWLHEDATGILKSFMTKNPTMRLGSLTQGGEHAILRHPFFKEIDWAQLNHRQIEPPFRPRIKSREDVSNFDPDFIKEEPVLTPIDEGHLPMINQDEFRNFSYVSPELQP
Chain of Receptor tyrosine-protein kinase erbB-4 (Homo sapiens) (Q15303 whole entry): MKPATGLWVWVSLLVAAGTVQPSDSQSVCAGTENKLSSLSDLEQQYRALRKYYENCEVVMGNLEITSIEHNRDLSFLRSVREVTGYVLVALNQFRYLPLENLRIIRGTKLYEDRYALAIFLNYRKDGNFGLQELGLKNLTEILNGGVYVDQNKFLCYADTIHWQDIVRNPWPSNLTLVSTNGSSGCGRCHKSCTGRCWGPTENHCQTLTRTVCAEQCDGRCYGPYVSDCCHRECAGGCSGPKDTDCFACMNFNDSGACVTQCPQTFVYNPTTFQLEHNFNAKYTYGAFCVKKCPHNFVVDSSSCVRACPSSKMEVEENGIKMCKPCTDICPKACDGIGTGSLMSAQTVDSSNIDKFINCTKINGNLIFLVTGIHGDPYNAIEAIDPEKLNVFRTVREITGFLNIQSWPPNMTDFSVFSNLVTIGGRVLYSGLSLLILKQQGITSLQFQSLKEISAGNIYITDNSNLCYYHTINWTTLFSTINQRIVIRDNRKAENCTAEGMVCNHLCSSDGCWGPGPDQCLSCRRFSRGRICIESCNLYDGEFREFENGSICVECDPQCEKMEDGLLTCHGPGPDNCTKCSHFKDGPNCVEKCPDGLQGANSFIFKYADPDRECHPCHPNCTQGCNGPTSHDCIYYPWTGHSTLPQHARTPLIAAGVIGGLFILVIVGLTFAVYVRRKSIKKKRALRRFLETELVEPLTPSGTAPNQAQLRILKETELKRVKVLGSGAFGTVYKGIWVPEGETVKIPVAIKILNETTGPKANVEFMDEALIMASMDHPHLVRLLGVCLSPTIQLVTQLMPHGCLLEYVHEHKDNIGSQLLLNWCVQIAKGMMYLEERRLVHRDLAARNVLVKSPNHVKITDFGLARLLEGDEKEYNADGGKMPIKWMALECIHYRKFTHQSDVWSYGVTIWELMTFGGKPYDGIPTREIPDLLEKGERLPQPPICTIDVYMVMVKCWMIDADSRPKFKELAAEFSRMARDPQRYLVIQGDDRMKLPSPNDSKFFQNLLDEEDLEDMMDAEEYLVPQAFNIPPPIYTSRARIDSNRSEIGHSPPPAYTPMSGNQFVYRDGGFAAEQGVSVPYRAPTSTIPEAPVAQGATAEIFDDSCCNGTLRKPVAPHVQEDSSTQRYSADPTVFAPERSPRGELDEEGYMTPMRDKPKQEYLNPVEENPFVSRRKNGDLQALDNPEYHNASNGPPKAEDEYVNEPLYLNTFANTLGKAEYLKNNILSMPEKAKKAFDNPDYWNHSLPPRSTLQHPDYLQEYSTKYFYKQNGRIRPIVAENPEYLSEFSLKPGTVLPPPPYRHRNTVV
Chain of Homeodomain-interacting protein kinase 3 (Homo sapiens) (Q9H422 whole entry, looked up): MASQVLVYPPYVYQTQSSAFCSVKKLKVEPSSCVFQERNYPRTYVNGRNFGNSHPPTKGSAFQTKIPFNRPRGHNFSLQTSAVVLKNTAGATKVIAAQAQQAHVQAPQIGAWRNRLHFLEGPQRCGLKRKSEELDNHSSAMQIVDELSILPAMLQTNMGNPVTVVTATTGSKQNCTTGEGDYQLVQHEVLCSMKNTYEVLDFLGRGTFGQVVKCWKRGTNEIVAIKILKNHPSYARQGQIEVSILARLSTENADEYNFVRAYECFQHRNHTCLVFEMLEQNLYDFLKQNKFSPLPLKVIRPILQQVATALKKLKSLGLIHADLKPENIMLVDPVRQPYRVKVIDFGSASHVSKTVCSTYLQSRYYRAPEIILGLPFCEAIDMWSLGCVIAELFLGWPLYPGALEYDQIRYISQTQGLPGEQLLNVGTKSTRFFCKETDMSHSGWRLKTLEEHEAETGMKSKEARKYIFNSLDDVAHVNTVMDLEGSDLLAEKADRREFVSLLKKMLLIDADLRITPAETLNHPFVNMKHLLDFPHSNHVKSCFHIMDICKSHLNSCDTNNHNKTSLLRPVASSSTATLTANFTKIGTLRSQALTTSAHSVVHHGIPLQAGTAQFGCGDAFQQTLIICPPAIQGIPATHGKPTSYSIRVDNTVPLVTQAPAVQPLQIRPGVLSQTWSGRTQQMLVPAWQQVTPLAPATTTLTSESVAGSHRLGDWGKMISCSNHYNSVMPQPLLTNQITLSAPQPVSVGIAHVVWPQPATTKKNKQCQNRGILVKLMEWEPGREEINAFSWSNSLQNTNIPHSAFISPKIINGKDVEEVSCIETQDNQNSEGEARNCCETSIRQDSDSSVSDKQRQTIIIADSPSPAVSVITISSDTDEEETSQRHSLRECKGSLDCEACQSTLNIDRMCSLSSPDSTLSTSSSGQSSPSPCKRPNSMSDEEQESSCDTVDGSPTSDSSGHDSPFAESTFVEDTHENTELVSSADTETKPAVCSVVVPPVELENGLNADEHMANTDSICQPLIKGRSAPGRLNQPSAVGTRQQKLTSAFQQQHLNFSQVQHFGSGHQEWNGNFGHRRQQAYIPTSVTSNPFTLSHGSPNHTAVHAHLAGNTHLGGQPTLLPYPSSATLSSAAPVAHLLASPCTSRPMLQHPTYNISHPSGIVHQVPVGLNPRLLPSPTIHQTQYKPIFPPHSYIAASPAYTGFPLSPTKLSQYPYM
Chain of Interferon-induced, double-stranded RNA-activated protein kinase (Homo sapiens) (P19525 whole entry, canonical isoform): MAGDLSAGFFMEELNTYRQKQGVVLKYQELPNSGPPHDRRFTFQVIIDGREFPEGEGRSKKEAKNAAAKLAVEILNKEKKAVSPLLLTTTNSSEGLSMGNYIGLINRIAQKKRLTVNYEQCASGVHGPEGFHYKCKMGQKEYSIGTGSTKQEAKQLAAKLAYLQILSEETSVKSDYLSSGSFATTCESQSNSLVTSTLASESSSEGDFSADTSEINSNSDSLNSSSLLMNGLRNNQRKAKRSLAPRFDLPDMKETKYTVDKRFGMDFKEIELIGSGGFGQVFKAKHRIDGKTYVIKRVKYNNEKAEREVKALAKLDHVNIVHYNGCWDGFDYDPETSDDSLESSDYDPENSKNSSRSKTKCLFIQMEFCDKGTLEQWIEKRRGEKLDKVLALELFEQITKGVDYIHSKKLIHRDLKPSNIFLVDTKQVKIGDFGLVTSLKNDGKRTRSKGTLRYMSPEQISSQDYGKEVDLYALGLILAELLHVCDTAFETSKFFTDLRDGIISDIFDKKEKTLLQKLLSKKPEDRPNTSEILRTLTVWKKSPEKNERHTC

Consider `COc1cc2c(Oc3ccc(-c4nc5ccccc5s4)cc3F)ncnc2cc1OCCCN1CCN(C)CC1`, for which the residual activity came to 166% in [1]; 74% in assay [2]; 81% in [3]; 100% in assay [4]; 91% in assay [5]; 48% in assay [6]. Also, the residual activity was 103% in assay [7]; 72% in assay [8]; 72% in assay [9]; 102% in assay [10]; 73% in [11]; 15% in [12]. In addition, the residual activity in assay [13] was determined as 92%; in assay [14], 104%.
For `COc1cc2c(Oc3ccc(-c4nc5ccccc5s4)cc3)ncnc2cc1OCCCN1CCN(C)CC1`, the residual activity in assay [1] amounted to 88%; in [2], 70%; in assay [3], 84%; in [4], 87%; in [5], 93%; in assay [6], 52%. The residual activity in assay [7] stood at 108%; in assay [8], 73%; in assay [9], 96%; in assay [10], 86%; in [11] it was 105%; in assay [12], 24%. For the same compound, the residual activity in assay [13] was 86%; in [14], 97%.
As for `COc1cc2c(Oc3ccc(-c4nc5ccccc5s4)cc3)ncnc2cc1OCCCN1CCCC1`, the residual activity in assay [1] came out at 118%; in assay [2] it was 51%; in [3] it was 86%; in [4], 102%; in assay [5], 91%; in assay [6] it was 67%. In addition, the residual activity in [7] is 89%; in [8], 83%; in [9], 80%; in assay [10], 93%; in assay [11], 96%; in assay [12] it was 25%. Besides, the residual activity in assay [13] amounted to 93%; in assay [14], 117%.
